Patent publication US12454675B2, “Method of increasing protein yield in mammalian cells in serum-free culture medium” (AGENCY FOR SCIENCE, TECHNOLOGY AND RESEARCH, priority 2016, dated 2025)

Legend:
[1] = test system: CHO-K1 cells; experiment: CHO-K1 cells in PFCDM with increasing concentration of maltose; format: cell-based, Chinese Hamster; settings: maltose-adapted CHO-K1, PFCDM, maltose 10 g/l to 40 g/l
Excerpt: CHO-K1 cells adapted to PFCDM with 10 g/L of maltose was cultivated in PFCDM with 10, 20, 30 and 40 g/L maltose in batch shake flask cultures. The cultures were monitored till culture viabilities were lower than 50%, to obtain their (A) Viable cell densities (lined marker) and culture viabilities (marker only), and (B) Osmolality, (C) Glucose, (D) Lactate, (E) Glutamine and (F) Ammonium profiles. […] Even with the higher maltose concentration, lactate concentration was kept at a low level till viability started to drop on Day 6.
Examining glutamine consumption, while this was slower in the maltose culture compared to the glucose culture (FIG. 2D), it was likely due to the slower growth of the maltose culture. […] This hypothesis is supported by the ammonium production profiles: while the specific ammonium production rate was initially similar for both cultures, that for the glucose culture slowed considerably from Day 2 (FIG. 2G) to attain a final ammonium concentration of 0.14 g/l (FIG. 2E), whereas the specific ammonium production rate of the maltose culture continued at a similar rate till Day 5 to attain a higher final ammonium concentration of 0.20 g/1. […]

[2] = test system: SH87 (CHO-K1 cell line producing an anti-Her2 monoclonal antibody); experiment: SH87 shake flask batch cultures in PFCDM with glucose and maltose; format: cell-based, Chinese Hamster; settings: 20 g/l maltose supplemented vs 14 g/l glucose and 10 g/l maltose supplemented cultures
Procedure: Viable cell density and culture viability were determined by Trypan blue dye exclusion method using Vi-Cell XR Cell Viability Analyzer (Beckman Coulter, Brea, CA) according to manufacturer's instructions. For biochemical and other cell culture parameter analyses, 1 ml of culture sample was centrifuged at 8000 g for 10 minutes to obtain clarified supernatant. Concentrations of ammonium, glutamine, glucose and lactate were analyzed by the BioProfile 100 Plus (Nova Biomedical, Waltham, MA). Osmolality was measured using a vapor pressure osmometer (Vapro 5520, Wescor, Logan, UT), according to manufacturer's instructions. Maltose concentration was quantified using Maltose Colorimetric/Fluorometric Assay Kit (Biovision, Milpitas, CA), according to manufacturer's instructions. […] Cells were cultivated in single-use Erlenmeyer flasks (Corning), with a cell seeding density of 0.3×10^6 cells/ml in duplicates. Cell culture samples were collected and analyzed daily throughout the duration of the growth profile experiment until culture viabilities fell below 50%. When necessary, culture supernatant samples were stored at -20° C. for further analysis.

## OC[C@H]1O[C@H](O[C@H]2[C@H](O)[C@@H](O)[C@H](O)O[C@@H]2CO)[C@H](O)[C@@H](O)[C@@H]1O [maltose]
[1]
  proliferation with increased concentrations of maltose: proliferated faster
[2]
  improvement in maximum IgG titer of batch culture: 15%
